Reference: ChEMBL document CHEMBL1147855, “Synthesis and evaluation of sulfonylurea derivatives as novel antimalarials” (Eur J Med Chem, 2007)

Key:
[1] = Inhibition of hemoglobin hydrolysis in mouse erythrocytes at 5 mM after 18 hrs relative to control; format: cell-based; details: Erythrocyte
Plasmodium falciparum = assay: Antimalarial activity against chloroquine-resistant Plasmodium falciparum W2 after 48 hrs by FACS; format: functional, organism-based; details: W2, 48 h
Mus musculus = assay: Survival of NIH mice (Mus musculus) infected with Plasmodium berghei ANKA infected erythrocytes at 20 mg/kg, intraperitoneal after 4 days by Peter's test; format: functional
Plasmodium berghei = assay: Antimalarial activity against Plasmodium berghei ANKA at 20 mg/kg intraperitoneal dose as reduced parasitaemia by Peter's assay; format: functional; parameters: scale not given: the % may be the effect or the level left

Row | Structure (SMILES) | inhibition at 5000 µM [1] | IC50 (Plasmodium falciparum) | Survival (Mus musculus) | Activity (Plasmodium berghei)
1 | Cc1ccc(S(=O)(=O)NC(=O)Nc2ccc(C(=O)/C=C/c3ccc(F)cc3F)cc2)cc1 | 90.3% | 1.2 µM | 1 days | 15.2%
2 | CC(=O)N[C@@H](CC(C)C)C(=O)N[C@@H](CC(C)C)C(=O)N[C@H](C=O)CCCNC(=N)N [LEUPEPTIN] | 87% |  |  | 
3 | O=C(Nc1ccc(C(=O)/C=C/c2ccc(F)cc2F)cc1)NS(=O)(=O)c1ccc(Cl)cc1 |  | 2.1 µM | 3 days | 5.2%
4 | COc1cc(/C=C/C(=O)c2ccc(NC(=O)NS(=O)(=O)c3ccc(C)cc3)cc2)cc(OC)c1OC |  | 8.8 µM |  | 
5 | O=C(Nc1ccc(C(=O)/C=C/c2ccc(F)cc2)cc1)NS(=O)(=O)c1ccc(Cl)cc1 | 34.5% | 10 µM | 1 days | 10.6%
6 | COc1cc2cc(/C=C/C(=O)c3ccc(NC(=O)NS(=O)(=O)c4ccc(C)cc4)cc3)c(Cl)nc2cc1OC |  | 10 µM |  | 
7 | CC(C)CC(=O)N[C@H](C(=O)N[C@H](C(=O)N[C@@H](CC(C)C)[C@@H](O)CC(=O)N[C@@H](C)C(=O)N[C@@H](CC(C)C)[C@@H](O)CC(=O)O)C(C)C)C(C)C [PEPSTATIN] | 91.9% |  |  | 
8 | Cc1ccc(S(=O)(=O)NC(=O)Nc2ccc(C(=O)/C=C/c3cc4ccccc4nc3Cl)cc2)cc1 |  | 9.6 µM |  | 
9 | CCN(CC)CCCC(C)Nc1ccnc2cc(Cl)ccc12 (configuration not stated) [CHLOROQUINE] |  |  |  | 3.66%
10 | Cc1ccc(S(=O)(=O)NC(=O)Nc2ccc(C(=O)/C=C/c3ccc4c(c3)OCO4)cc2)cc1 |  | 9.6 µM |  | 
11 | Cc1ccc(S(=O)(=O)NC(=O)Nc2ccc(C(=O)/C=C/c3ccc(F)cc3)cc2)cc1 |  | 10 µM |  | 
12 | O=C(Nc1ccc(C(=O)/C=C/c2ccc3c(c2)OCO3)cc1)NS(=O)(=O)c1ccc(Cl)cc1 | 50.6% | 9.7 µM | 2.16 days | 3.4%
13 | COc1cc(/C=C/C(=O)c2ccc(NC(=O)NS(=O)(=O)c3ccc(Cl)cc3)cc2)cc(OC)c1OC | 36.7% | 9.4 µM | 1.83 days | 8%
